Values quoted from earlier work, collected in patent EP4470382A1, “PLANT EXTRACT AND METHODS COMPRISING THEREOF” (FUNDACION UNIVERSITARIA SAN ANTONIO (UCAM), priority 2023, dated 2024).

conditions: activity registered in BIOPEP for the sequence

| Substance | Activity |
| --- | --- |
| SQSKVLPVPQKAVPYPQ [Antioxidative peptide identified in bovine casein hydrolysate, BIOPEP ID 9907] | antioxidative |
| YQKFPQY | ACE inhibitor |
| RPKHPIKHQGLPQEVLNENLLRF [Isracidin - antiviral, identified in bovine casein hydrolysate, BIOPEP ID 9530] | antiviral |
| VYQHQKAMKPWIQPKTKVIPYVRYL [(fr. 183-207) of bovine alpha s2-casein, identified in bovine casein hydrolysate, BIOPEP ID 5469] | antibacterial |
| LLYQEPVLGPVRGPFPIIV [peptide derived from bovine b-casein (1-28), identified in bovine casein hydrolysate, BIOPEP ID 8174] | immunomodulat ing |
